From paper PMC9884426, “A phase 1 clinical trial of the repurposable acetyllysine mimetic, n-methyl-2-pyrrolidone (NMP), in relapsed or refractory multiple myeloma” (Clinical Epigenetics, 2023)
Several values for one entry are separate records, joined by “and”; a condition that tells them apart may be missing. Equal values may be shown once. Read-outs that look alike come from different tables or passages of the source.

Assay: Plasma pharmacokinetics of oral NMP by LCMSMS
Assay type: in vivo, human
Conditions: plasma, plasma
Description: Blood samples were taken from patients before NMP and at one, two, four, eight and 24 h post dose. Plasma samples (20 μl) were prepared by adding five volumes of methanol containing deuterated internal standard. The samples were vortexed then centrifuged, and the supernatant was transferred to a vial and injected onto the LCMSMS. The LCMSMS system consisted of a Shimadzu UHPLC with a SCIEX 6500QTrap, a KinetexC18 (3 × 50 mm, 2.6 μm) column and using a gradient of 0.1% formic acid and acetonitrile. The initial conditions were 0.5 ml/min and 2% acetonitrile; this was held for 1 min then increased to 20% acetonitrile at 2 min then increased to 70% acetonitrile and held for 0.5 min. Equilibration time was 0.5 min. MRMs for NMP were 100 → 58, 100 → 69, 100 → 41 and for the internal standard d9NMP 109 → 62, […]. PK analysis was performed using Pkanalix (version 2021R1. Antony, France: Lixoft SAS, 2021).

[1] = oral 25 mg, patient RMH-01 occasion 6
[2] = oral 50 mg, average of N = 5 profiles
[3] = oral 50 mg, individual profiles, patient RMH-01 occasions 1-5
[4] = oral 100 mg, average of N = 5 profiles
[5] = oral 100 mg, individual profiles, patient RMH-02 occasions 1-5
[6] = oral 200 mg, average of N = 8 profiles
[7] = oral 200 mg, individual profiles (PMC-03, MON-04, MON-06, MON-07, PMC-08)
[8] = oral 200 mg, individual profiles (PMC-03, MON-04, PMC-05, MON-06, MON-07, PMC-08)
[9] = oral 300 mg, average of N = 3 profiles
[10] = oral 300 mg, individual profiles (PMC-09, MON-10, MON-11)
[11] = oral 400 mg, average of N = 2 profiles
[12] = oral 400 mg, individual profiles (MON-11 occasion 2, MON-12)
[13] = oral 500 mg, patient MON-11 occasion 3
[14] = oral 600 mg, patient MON-11 occasion 4
[15] = oral 700 mg, patient MON-11 occasion 5
[16] = oral 800 mg, patient MON-11 occasion 6

Compound: CN1CCCC1=O [NMP, N-methyl-2-pyrrolidone]
- Cmax (human, po, 700 mg, oral 700 mg, patient MON-11 occasion 5, read-out: Cmax): 12400 ng/mL
- half-life (human, po, 700 mg, oral 700 mg, patient MON-11 occasion 5, read-out: Half-life (converted)): 2.35 h
- Tmax (human, po, 700 mg, oral 700 mg, patient MON-11 occasion 5, read-out: Tmax): 0.5 h
- Cmax (human, po, 800 mg, 800 mg dose level, oral, one patient, read-out: highest Cmax achieved): ~168 µM
- AUC (human, po, 800 mg, oral 800 mg, patient MON-11 occasion 6, read-out: AUC): 90300 ng·h/mL
- Cmax (human, po, 800 mg, oral 800 mg, patient MON-11 occasion 6, read-out: Cmax): 16700 ng/mL
- half-life (human, po, 800 mg, oral 800 mg, patient MON-11 occasion 6, read-out: Half-life (converted)): 1.75 h
- Tmax (human, po, 800 mg, oral 800 mg, patient MON-11 occasion 6, read-out: Tmax): 1 h
- Cmax (human, po, 800 mg, oral, one patient, read-out: Maximum plasma concentration (Cmax), highest achieved): 16700 ng/mL
- half-life (human, po, all dose levels 25-800 mg oral, N = 28 profiles, read-out: Half-life, Overall Average (converted)): 1.55 h
- AUC (human, po, all dose levels 25-800 mg oral, N = 29 profiles, read-out: AUC, Overall Average): 16900 ng·h/mL
- Cmax (human, po, all dose levels 25-800 mg oral, N = 29 profiles, read-out: Cmax, Overall Average): 5290 ng/mL
- Tmax (human, po, all dose levels 25-800 mg oral, N = 29 profiles, read-out: Tmax, Overall Average): ~0.5 h
- CL/F [1]: 16.65 L⋅h⁻¹
- V/F [1]: 20.83 L
- CL/F, Average [2]: 23.62 L⋅h⁻¹
- V/F, Average [2]: 36.62 L
- AUC [3]: 1.86 h⋅mg⋅L⁻¹ and 1.88 h⋅mg⋅L⁻¹ and 2.09 h⋅mg⋅L⁻¹ and 2.18 h⋅mg⋅L⁻¹
- CL/F [3]: 17.68 L⋅h⁻¹ and 26.86 L⋅h⁻¹ and 26.66 L⋅h⁻¹ and 23.93 L⋅h⁻¹ and 22.97 L⋅h⁻¹
- Cmax [3]: 1.24 mg⋅L⁻¹ and 1.25 mg⋅L⁻¹ and 1.04 mg⋅L⁻¹ and 1.06 mg⋅L⁻¹
- V/F [3]: 30.85 L and 38.66 L and 41.02 L and 35.88 L and 36.67 L
- half-life [3]: 0.99 h and 1.07 h and 1.04 h and 1.11 h
- CL/F, Average [4]: 14.04 L⋅h⁻¹
- V/F, Average [4]: 36.98 L
- AUC [5]: 7.25 h⋅mg⋅L⁻¹ and 6.95 h⋅mg⋅L⁻¹ and 7.61 h⋅mg⋅L⁻¹ and 6.88 h⋅mg⋅L⁻¹
- CL/F [5]: 14.35 L⋅h⁻¹ and 13.79 L⋅h⁻¹ and 14.4 L⋅h⁻¹ and 13.13 L⋅h⁻¹ and 14.53 L⋅h⁻¹
- Cmax [5]: 2.51 mg⋅L⁻¹ and 2.52 mg⋅L⁻¹ and 2.43 mg⋅L⁻¹ and 2.65 mg⋅L⁻¹
- V/F [5]: 34.92 L and 41.77 L and 37.5 L and 34.02 L and 36.67 L
- CL/F, Average [6]: 25.52 L⋅h⁻¹
- V/F, Average [6]: 49.77 L
- CL/F [7]: 31.82 L⋅h⁻¹ and 24.02 L⋅h⁻¹ and 25.05 L⋅h⁻¹ and 20.34 L⋅h⁻¹ and 18.2 L⋅h⁻¹ and 9.1 L⋅h⁻¹ and 57.76 L⋅h⁻¹ and 17.85 L⋅h⁻¹
- V/F [7]: 64.35 L and 55.72 L and 43.19 L and 37.65 L and 36.79 L and 26.02 L and 87.19 L and 47.25 L
- AUC [8]: 6.29 h⋅mg⋅L⁻¹ and 8.33 h⋅mg⋅L⁻¹ and 7.98 h⋅mg⋅L⁻¹ and 9.83 h⋅mg⋅L⁻¹ and 5.49 h⋅mg⋅L⁻¹ and 10.99 h⋅mg⋅L⁻¹ and 21.99 h⋅mg⋅L⁻¹ and 3.46 h⋅mg⋅L⁻¹ and 11.21 h⋅mg⋅L⁻¹
- Cmax [8]: 2.33 mg⋅L⁻¹ and 3.98 mg⋅L⁻¹ and 4.43 mg⋅L⁻¹ and 5.05 mg⋅L⁻¹ and 2.05 mg⋅L⁻¹ and 4.95 mg⋅L⁻¹ and 7.26 mg⋅L⁻¹ and 2.64 mg⋅L⁻¹ and 3.79 mg⋅L⁻¹
- CL/F, Average [9]: 15.62 L⋅h⁻¹
- V/F, Average [9]: 33.93 L
- AUC [10]: 32.55 h⋅mg⋅L⁻¹ and 12.73 h⋅mg⋅L⁻¹ and 21.3 h⋅mg⋅L⁻¹
- CL/F [10]: 9.22 L⋅h⁻¹ and 23.57 L⋅h⁻¹ and 14.08 L⋅h⁻¹
- Cmax [10]: 6.89 mg⋅L⁻¹ and 6.81 mg⋅L⁻¹
- V/F [10]: 22.09 L and 38.59 L and 41.1 L
- half-life [10]: 1.13 h and 2.02 h
- CL/F, Average [11]: 19.53 L⋅h⁻¹
- V/F, Average [11]: 42.44 L
- AUC [12]: 15.99 h⋅mg⋅L⁻¹
- CL/F [12]: 14.03 L⋅h⁻¹ and 25.02 L⋅h⁻¹
- Cmax [12]: 7.63 mg⋅L⁻¹
- V/F [12]: 35.95 L and 48.93 L
- half-life [12]: 1.36 h
- CL/F [13]: 12.33 L⋅h⁻¹
- V/F [13]: 35.2 L
- CL/F [14]: 10.59 L⋅h⁻¹
- V/F [14]: 33.11 L
- CL/F [15]: 12.16 L⋅h⁻¹
- V/F [15]: 41.26 L
- CL/F [16]: 8.86 L⋅h⁻¹
- V/F [16]: 22.43 L
